What all share (test): growth of human tumour cells (NCI), 48 h
For test [1], the system named is NCI-H522 lung.
The test system of test [2] is K-562 leukemia.
For test [3], the system named is LOX IMVI melanoma.
Test [4] deals with HOP-92 NSCLC.
Test [5] deals with NCI-H226 lung.
For test [6], the system named is HOP-62 NSCLC.
Test [7] concerns MDA-MB-231 breast.
For test [8], the system named is A498 renal.
Test [9] deals with CCRF-CEM leukemia.
Test [10] has as its system OVCAR-5 ovarian.

Values joined by “and” are separate entries in the source; they are usually repeats but may differ in a detail not shown here. Equal entries are not always repeated.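 Protocol summary: plate cells (96-well), add compound at 5 concentrations, incubate 48 h, interpolate endpoints linearly. Here, GI50 denotes the concentration required for 50% inhibition of growth. TGI: total growth inhibition.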

For the compound `Cn1nc(N)c2cc([C@@H]3Nc4ccc5[nH]ncc5c4[C@H]4C5CCC(C5)[C@@H]34)ccc21` (stereo partly specified), the GI50 in test [1] was 0.474 µM; in [2], 0.324 µM; in test [3], 0.515 µM; in test [4], 1.51 µM; in test [5], 1.14 µM; in [6], 0.603 µM. Besides, the GI50 in test [7] is 2.31 µM; in test [8], 0.225 µM; in [9], 0.377 µM; in [10], 1.48 µM. Also, the TGI in test [1] was 24 µM; in [2], greater than 100 µM; in test [3] it was 15.7 µM; in [4], 17.9 µM; in [5], 23.5 µM; in test [6], 25.5 µM. The TGI in test [7] was 16.8 µM; in [8], 1.15 µM; in [9] it was greater than 43.4 µM; in [10], 23.4 µM.
With `[Cl][Hg][c]1cc(Br)cc(Br)c1`, the GI50 in test [1] was 0.493 µM; in test [2], 1.12 µM; in test [3], 1.41 µM; in [4], 1.7 µM; in test [5], 3.48 µM; in test [6], 1.83 µM. Further, the GI50 in test [7] is 1.79 µM; in test [8], 2.64 µM; in [9], 1.32 µM; in test [10], 2.8 µM. The TGI was 2.27 µM in test [1]; 3.81 µM in [2]; 2.86 µM in [3]; 3.45 µM in test [4]; 8.84 µM in test [5]; 3.52 µM in [6]. The TGI was found to be 3.89 µM in test [7], 8.01 µM in test [8], 4.22 µM in test [9] and 5.65 µM in test [10].
As to `CCC(C)n1ncn(-c2ccc(N3CCN(c4ccc(OCC5COC(Cn6cncn6)(c6ccc(Cl)cc6Cl)O5)cc4)CC3)cc2)c1=O` (stereo unspecified), the GI50 in test [1] was 15.4 µM; in test [2], 9.76 µM; in test [3] it was 9.41 µM; in test [4], 0.335 µM; in test [5], 28.1 µM; in test [6], 8.97 µM. Moreover, the GI50 is 7.11 µM in test [7], 10.8 µM in [8], greater than 100 µM in test [9] and 56.3 µM in test [10]. The TGI in [1] is 60.8 µM; in [2], greater than 100 µM; in test [3], greater than 100 µM; in test [4] it was 24.5 µM; in [5], greater than 100 µM; in test [6], 37 µM. For the same compound, the TGI in test [7], in test [8], in test [9] and in test [10] was greater than 100 µM each time.
In the case of `O=C(Nc1nc2ccc(C(F)(F)F)cc2s1)c1cc(Cl)ccc1O`, the GI50 in test [1] is 0.278 µM; in test [2], 0.351 µM; in test [3], 1.33 µM; in test [4], 0.116 µM; in test [5], 1.23 µM; in test [6] it was 2.03 µM. Moreover, the GI50 was 0.704 µM in test [7], 0.309 µM in [8], 0.378 µM in test [9] and 3.67 µM in test [10]. For the same compound, the TGI in [1] is 2.08 µM; in [2], greater than 100 µM; in test [3], 15.8 µM; in test [4], 0.489 µM; in [5] it was 11.4 µM; in test [6] it was 7.09 µM. Besides, the TGI in [7] is 3.75 µM; in test [8], 2.26 µM; in [9] it was 96.5 µM; in test [10], greater than 100 µM.
Take `COc1cc(C2CC(c3cccc(Br)c3)=NN2C(C)=O)cc(OC)c1OC` (stereo unspecified): the GI50 is 0.286 µM in test [1]; 0.114 µM in [2]; 0.719 µM in test [3]; 17 µM in test [4]; 11.5 µM in test [5]; 3.56 µM in test [6]. The GI50 was 1.67 µM in test [7], 0.514 µM in test [8], 0.264 µM in test [9] and 2.93 µM in test [10]. The TGI was 4.47 µM in [1]; 11.7 µM in test [2]; 57.3 µM in test [3]; 83.8 µM in test [4]; greater than 58.5 µM in test [5]; 62.8 µM in test [6]. Also, the TGI in [7] is greater than 46 µM; in test [8], greater than 19.7 µM; in test [9], 4.5 µM; in [10], greater than 100 µM.
Turning to `CNC(=O)N(C)N=NCCCl`, the TGI in [1], in test [2], in test [3], in [4], in test [5] and in test [6] was greater than 100 µM throughout. For the same compound, the TGI in test [7], in test [8], in test [9] and in test [10] was greater than 100 µM each time.
Take `O=C(O)C1C2C=CC(O2)C1C(=O)NCc1ccccn1` (stereo unspecified): the TGI in [1], in [2], in [3], in [4], in test [5] and in test [6] was greater than 100 µM in each case. The TGI in [7], in test [8], in [9] and in [10] was greater than 100 µM each time.
Turning to `C=C(c1nc2ccc(Cl)cc2[nH]c1=O)C(O)c1ccc(C(O)C(=O)c2nc3ccc(Cl)cc3[nH]c2=O)cc1` (stereo unspecified), the TGI in test [1], in test [2], in [3], in test [4], in test [5] and in test [6] was greater than 100 µM each time. For the same compound, the TGI in test [7], in test [8], in test [9] and in test [10] was greater than 100 µM throughout.
As to `O=C1c2cccc(NCCCNCCO)c2C(=O)c2cccc(NCCCNCCO)c21`, the TGI in [1] is 1.6 µM; in test [2] it was 18.8 µM and 8.27 µM; in [3] it was 4.79 µM and 6.13 µM; in test [4], 4.08 µM; in test [5], 5.11 µM and 2.99 µM; in test [6] it was 6.38 µM and 6.71 µM. Further, the TGI is 3.37 µM in test [7]; 4.66 µM and 7.58 µM in test [8]; 7.09 µM and 6.97 µM in [9]; 6.28 µM and 6.41 µM in test [10]. In addition, the GI50 in test [2] was 3.69 µM and 1.05 µM; in test [5], 1.93 µM and 0.729 µM.
Consider `Clc1nc2ccccc2nc1CI`, for which the GI50 in test [1] is 1.77 µM; in test [2], 1.74 µM; in test [3] it was 1.03 µM; in [4], 1.81 µM; in test [5], 2.67 µM; in test [6], 13.4 µM. Further, the GI50 in test [7] is 3.14 µM; in [8], 20.5 µM; in test [9] it was 0.93 µM; in test [10] it was 8.26 µM. Moreover, the TGI in test [1] is 3.58 µM; in test [2], greater than 32.5 µM; in test [3], 3.34 µM; in test [4] it was 6.82 µM; in [5] it was 8.24 µM; in test [6] it was 30.6 µM. The TGI was 9.08 µM in [7], 42.9 µM in test [8], 4.99 µM in test [9] and 22 µM in test [10].
Take `N#CC(=C1C=CC(=NO)C=C1)c1ccccc1`: the GI50 in [1] was 1.02 µM; in [2], 1.85 µM; in test [3], 1.17 µM; in [4], 2.49 µM; in [5], 2.35 µM; in test [6], 6.31 µM. Further, the GI50 is 1.73 µM in test [7], 5.33 µM in test [8], 0.476 µM in [9] and 2.53 µM in test [10]. The TGI was found to be 4.68 µM in test [1]; 13.2 µM in [2]; 6.25 µM in [3]; 9.46 µM in test [4]; 7.47 µM in test [5]; 25.2 µM in test [6]. Also, the TGI stood at 5.17 µM in [7], 22.8 µM in test [8], 2.36 µM in test [9] and 5.03 µM in test [10].
`COc1ccc(CN2C(=O)/C(=C\C(=O)c3ccc(OCCN4CCCCC4)cc3)c3ccccc32)cc1`: the GI50 is 1.97 µM in test [1]; 2.31 µM in [2]; 1.65 µM in [3]; 1.64 µM in test [4]; 14.9 µM in test [5]; 20.2 µM in test [6]. In addition, the GI50 in test [7] is 2.15 µM; in [8], 13.5 µM; in [9], 3.01 µM; in [10], 1.88 µM. For the same compound, the TGI turned out to be 3.78 µM in [1]; 10.4 µM in [2]; 3.04 µM in test [3]; 3.89 µM in [4]; 32.2 µM in test [5]; 35.4 µM in test [6]. Besides, the TGI amounted to 4.56 µM in test [7], 27 µM in [8], 14 µM in test [9] and 5.94 µM in test [10].
As for `C=C1CC[C@@H]2[C@](C)(COC(C)=O)[C@H](OC(C)=O)CC[C@@]2(C)[C@@H]1CC(Sc1ccccc1)C1=CCOC1=O` (stereo partly specified), the GI50 is 1.35 µM in [1]; 0.699 µM in test [2]; 0.297 µM in test [3]; 2.71 µM in test [4]; 2.3 µM in [5]; 2.89 µM in [6]. For the same compound, the GI50 in [7] is 2.47 µM; in test [8], 2.3 µM; in test [9], 0.266 µM; in [10] it was 2.46 µM. Moreover, the TGI in test [1] is 2.98 µM; in [2], 3.69 µM; in test [3] it was 1.19 µM; in [4], 8.71 µM; in test [5] it was 5.98 µM; in [6], 5.52 µM. Moreover, the TGI came to 6.3 µM in [7], 14 µM in [8], 1.19 µM in test [9] and 4.67 µM in test [10].
With `O=C(Cc1ccc(/C=C/C(=O)c2ncc[nH]2)cc1)Nc1cc(F)c(F)c(F)c1`, the GI50 was 3.46 µM in test [1]; 2.31 µM in test [2]; 1.56 µM in [3]; 3.53 µM in [4]; 4.83 µM in [5]; 3.71 µM in test [6]. In addition, the GI50 was 6.45 µM in test [7], 4.34 µM in test [8], 2.79 µM in [9] and 4.58 µM in test [10]. Further, the TGI in [1] is 8.01 µM; in [2], greater than 25 µM; in test [3], 4.81 µM; in [4], 8 µM; in test [5], 12.8 µM; in test [6] it was 8.12 µM. Further, the TGI in test [7] was 21.1 µM; in [8] it was 9.98 µM; in test [9], 13.9 µM; in [10], 8.84 µM.
In the case of `CCN(CC)CCCC(CNc1ccnc2cc(Cl)ccc12)c1ccc(Cl)cc1` (stereo unspecified), the GI50 in [1] was 1.69 µM and 0.859 µM; in test [2], 0.289 µM and 0.227 µM; in [3] it was 0.764 µM and 0.353 µM; in test [4], 1.44 µM and 1.16 µM; in [5], 2.14 µM and 2.55 µM; in test [6], 1.83 µM and 1.64 µM. In addition, the GI50 was 1.41 µM and 1.54 µM in test [7]; 1.83 µM and 1.35 µM in [8]; 1.71 µM and 1.2 µM in test [9]; 2.53 µM and 2.16 µM in test [10]. The TGI in test [1] is 3.51 µM and 2.55 µM; in test [2] it was 0.994 µM and 0.603 µM; in [3] it was 2.13 µM and 1.36 µM; in test [4] it was 3.12 µM and 2.78 µM; in [5], 5.81 µM and 8.83 µM; in test [6], 4.23 µM and 3.73 µM. For the same compound, the TGI in test [7] is 3.21 µM and 3.32 µM; in test [8], 3.33 µM and 2.8 µM; in test [9] it was 5.17 µM and 4.6 µM; in test [10], 8.25 µM and 6.25 µM.
For `CCN(CC)c1ccc2c(c1)OC(N)=C(C#N)C2c1cc(OC)c2c(c1)OCO2` (stereo unspecified), the TGI in [1] was 0.0474 µM; in test [2] it was 4.32 µM; in [3], 3.86 µM; in [4] it was 3.58 µM; in [5], 0.942 µM; in [6] it was 20.3 µM. Also, the TGI is 2.73 µM in [7], 0.0809 µM in [8], 1.71 µM in [9] and 30.1 µM in test [10]. Also, the GI50 is less than 0.0175 µM in [2]; 0.0577 µM in test [3]; 0.107 µM in test [4]; 0.047 µM in test [5]; 0.0602 µM in test [6]; 0.0557 µM in [7]. Besides, the GI50 in test [8] was 0.0201 µM; in [9], 0.0308 µM; in test [10], 0.0639 µM.

Source of the values: PubChem BioAssay (NCI).
